Measurements published in US12691070B2, “Cationic lipids and preparation method thereof” (RiboX Therapeutics HK Limited, priority 2023, dated 2026).

Assays:
[1] = LNP size and polydispersity index (PDI) by dynamic light scattering; type: physicochemical; details: for Size: in nm (unit assumed)
Summary of the method: (§1)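 Dynamic light scattering and zeta potential measurements were run on PBS-dialyzed LNPs, which had been formed by microfluidic mixing at 12 ml/min with final lipid at 1.5 mM to 6 mM. RNA content and percent encapsulation were determined by Ribogreen with and without Triton X-100.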

[2] = LNP zeta potential (Zetasizer); type: physicochemical
Summary of the method: as §1

[3] = RNA encapsulation efficacy by Quant-IT Ribogreen kit; type: physicochemical; details: for Encapsulation Efficiency %: LNP with cirRNA (SEQ ID NO: 1); for Encapsulation Efficiency: LNP with mRNA (SEQ ID NO: 2)
Summary of the method: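 LNPs of ionizable lipid/DSPC/cholesterol/DMG-PEG 2000 (50:10:38.5:1.5) made by microfluidic mixing of luciferase circRNA or mRNA in pH 4.5 acetate with lipids in ethanol (3:1, 12 ml/min), ionizable lipid:nucleotide 15 or 6, then dialyzed against PBS. Size, PDI (DLS) and zeta potential on Zetasizer; encapsulation by Ribogreen ± Triton X-100.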

Hep G2 cells [4] = assay: In vitro expression of firefly-luciferase, Hep G2; type: cell-based
Summary of the method: (§2)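 Cells were transfected with firefly-luciferase-encoding RNA-LNPs at 100 ng/mL. After 72 hours they were washed and lysed, and luciferase activity in the lysates was read by luminometry.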

RAW 264.7 cells [5] = assay: In vitro expression of firefly-luciferase, RAW 264.7; type: cell-based
Summary of the method: as §2

Hep G2 cells [6] = assay: In vitro toxicity (CellTiter-Glo cell viability), Hep G2; type: cell-based;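 also: percent of untreated cells luminescence signal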
Summary of the method: (§3)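 Toxicity of RNA-LNPs (1 μg/mL) is reported as cell viability, calculated from CellTiter-Glo luminescence measured at 72 hours after transfection.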

RAW 264.7 cells [7] = assay: In vitro toxicity (CellTiter-Glo cell viability), RAW 264.7; type: cell-based;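 also: percent of untreated cells luminescence signal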
Summary of the method: as §3

BALB/C mice [8] = assay: In vivo expression, whole-body luminescence (IVIS)
Procedure: 6-8 week old, female BALB/C mice were injected with 0.05 mg*kg-1 of RNA-LNPs encoding for firefly-luciferase by intravenous injection. At 6 hours post injection, animals were intraperitoneally injected with 15 mg/ml of Luciferin substrate and whole-body luminescence was determined by a bioluminescent in vivo imaging system (IVIS).

MCP-I = MCP-I cytokine elevation in serum; type: in vivo; details: cirRNA (SEQ ID NO: 1) LNPs, mice
Procedure: 6-8 week old, female BALB/C mice were injected with 0.5 mg*kg-1 of RNA LNPs by intravenous injection. At 2 and 24 hours post injection, animals were bled and sera concentrations of MCP-I were determined by an immunoassay (Luminex).

[9] = test system: Alanine Aminotransferase (ALT); assay: Liver enzyme elevation in serum, ALT; type: in vivo; details: cirRNA (SEQ ID NO: 1) LNPs, BALB/C mice, intravenous 0.5 MPK
Procedure: (§4) 6-8 week old, female BALB/C mice were injected with 0.5 mg*kg-1 of RNA LNPs by intravenous injection. At 2 and 24 hours post injection, animals were bled and sera concentrations of Alanine Aminotransferase (ALT) and Aspartate Aminotransferase (AST) were determined by a blood chemistry analyzer.

[10] = test system: Aspartate Aminotransferase (AST); assay: Liver enzyme elevation in serum, AST; type: in vivo; details: cirRNA (SEQ ID NO: 1) LNPs, BALB/C mice, intravenous 0.5 MPK
Procedure: as §4

BALB/C mice [11] = assay: Local tolerance determination by footpad injection; type: in vivo; details: cirRNA (SEQ ID NO: 1) LNP, 0.175 mg*kg-1 subcutaneous into the footpad, 24 hours post minus prior
Procedure: 6-8 week old, female BALB/C mice were injected with 0.175 mg*kg-1 RNA LNPs by subcutaneous injection into the footpad. Prior to, and 24 hours post injections, injected footpad thickness was determined by a caliper.

[12] = cirRNA (SEQ ID NO: 1) LNPs, firefly-luciferase luminescence, Hep G2 cells
[13] = mRNA (SEQ ID NO: 2) LNP, 100 ng/mL, 72 hours post transfection, luciferase activity
[14] = cirRNA (SEQ ID NO: 1) LNPs, firefly-luciferase luminescence, RAW 264.7 cells
[15] = cirRNA (SEQ ID NO: 1) LNPs, Hep G2 cells
[16] = mRNA (SEQ ID NO: 2) LNP, 1 μg/mL, 72 hours post transfection
[17] = cirRNA (SEQ ID NO: 1) LNPs, RAW 264.7 cells
[18] = cirRNA (SEQ ID NO: 1) LNPs, BALB/C mice
[19] = mRNA (SEQ ID NO: 2) LNP, 0.05 mg*kg-1 intravenous, 6 hours post injection

| PDI ([1]; LNP with cirRNA (SEQ ID NO: 1)) | Size ([1]; LNP with cirRNA (SEQ ID NO: 1)) | PDI ([1]; LNP with mRNA (SEQ ID NO: 2)) | Size ([1]; LNP with mRNA (SEQ ID NO: 2)) | Zeta (mV) ([2]; LNP with cirRNA (SEQ ID NO: 1)) | Zeta (mV) ([2]; LNP with mRNA (SEQ ID NO: 2)) | Encapsulation Efficiency % [3] | Encapsulation Efficiency [3] | MCP-I in Sera 2 hours After 0.5 MPK Injection (MCP-I) | MCP-I in Sera 24 hours After 0.5 MPK Injection (MCP-I) | SMILES | In vitro Expression HepG2 (Hep G2 cells [4]; [12]) | In vitro Expression HepG2 (Hep G2 cells [4]; [13]) | In vitro Expression RAW (RAW 264.7 cells [5]; [14]) | In vitro Expression RAW (RAW 264.7 cells [5]; [13]) | In vitro Viability HepG2 (Hep G2 cells [6]; [15]) | In vitro Viability HepG2 (Hep G2 cells [6]; [16]) | In vitro Viability RAW (RAW 264.7 cells [7]; [17]) | In vitro Viability RAW (RAW 264.7 cells [7]; [16]) | In vivo Expression (Whole Body) (BALB/C mice [8]; [18]) | In vivo Expression (Whole Body) (BALB/C mice [8]; [19]) | also measured |
| --- | --- | --- | --- | --- | --- | --- | --- | --- | --- | --- | --- | --- | --- | --- | --- | --- | --- | --- | --- | --- | --- |
| 0.13 | 91.13 | 0.1903 | 70.28 | 1.59 mV | 13.66 mV | 97% | 89% | 8335.00 pg/mL | 93.14 pg/mL | CCCCC/C=C\C/C=C\CCCCCCCCN(CCCCCC(=O)OCC(CCCCCCCC)CCCCCCCCCC)CCOC(=O)NCCN(C)C (centres unmarked) [Lipid 75, 2-octyldodecyl 2-methyl-10-((9Z,12Z)-octadeca-9,12-dien-1-yl)-6-oxo-7-oxa-2,5,10-triazahexadecan-16-oate] | 1.94E+06 | 9.23E+06 | 2.08E+06 | 2.18E+06 | 85% | 95% | 75% | 96% | 9.85E+08 | 4.22E+08 | ALT in Sera (IU/L) 2 hours After 0.5 MPK Injection [9]: 111.37 IU/L; ALT in Sera (IU/L) 24 hours After 0.5 MPK Injection [9]: 48.97 IU/L; AST in Sera (IU/L) 2 hours After 0.5 MPK Injection [10]: 279.87 IU/L; AST in Sera (IU/L) 24 hours After 0.5 MPK Injection [10]: 94.83 IU/L; Footpad Thickness (24 h−0 h, mm) (BALB/C mice [11]): 0.85 mm |
| 0.06 | 67.68 | 0.06127 | 65.54 | 1.34 mV | 7.6 mV | 87% | 88% | 153.05 pg/mL | 33.08 pg/mL | CCCCC/C=C\C/C=C\CCCCCCCCN(CCCCCC(=O)OCCCCCCCCCCC)CCOC(=O)NCc1ncc[nH]1 [Lipid 90, undecyl 6-((2-((((1H-imidazol-2-yl)methyl)carbamoyl)oxy)ethyl)((9Z,12Z)-octadeca-9,12-dien-1-yl)amino)hexanoate] | 1.27E+05 | 2.16E+05 | 8.50E+04 | 1.21E+05 | 95% | 85% | 24% | 96% | 8.80E+07 | 2.73E+07 | ALT in Sera (IU/L) 2 hours After 0.5 MPK Injection [9]: 40.57 IU/L; ALT in Sera (IU/L) 24 hours After 0.5 MPK Injection [9]: 37.87 IU/L; AST in Sera (IU/L) 2 hours After 0.5 MPK Injection [10]: 77.50 IU/L; AST in Sera (IU/L) 24 hours After 0.5 MPK Injection [10]: 64.70 IU/L; Footpad Thickness (24 h−0 h, mm) (BALB/C mice [11]): 0.20 mm |
| 0.04 | 71.42 | 0.1822 | 57.31 | −3.13 mV | −1.439 mV | 95% | 87% | 301.91 pg/mL | 128.65 pg/mL | CCCCC/C=C\C/C=C\CCCCCCCCN(CCCCCCCC(=O)OC(CCCCCCCC)CCCCCCCC)CCOC(=O)NCCN1CCCCC1 [Lipid 127, heptadecan-9-yl 8-(((9Z,12Z)-octadeca-9,12-dien-1-yl)(2-(((2-(piperidin-1-yl)ethyl)carbamoyl)oxy)ethyl)amino)octanoate] | 2.14E+06 | 1.75E+06 | 4.87E+06 | 5.53E+05 | 99% | 100% | 76% | 109% | 1.14E+09 | 8.69E+07 | ALT in Sera (IU/L) 2 hours After 0.5 MPK Injection [9]: 74.17 IU/L; ALT in Sera (IU/L) 24 hours After 0.5 MPK Injection [9]: 54.90 IU/L; AST in Sera (IU/L) 2 hours After 0.5 MPK Injection [10]: 161.17 IU/L; AST in Sera (IU/L) 24 hours After 0.5 MPK Injection [10]: 91.53 IU/L; Footpad Thickness (24 h−0 h, mm) (BALB/C mice [11]): 0.94 mm |
| 0.1 | 93.54 | 0.1021 | 75.38 | 0.282 mV | 6.141 mV | 94% | 91% | 6355.24 pg/mL | 318.11 pg/mL | CCCCC/C=C\C/C=C\CCCCCCCCN(CCCCCCCC(=O)OC(CCCCCCCC)CCCCCCCC)CCOC(=O)NCCN1CCCC1 [Lipid 128, heptadecan-9-yl 8-(((9Z,12Z)-octadeca-9,12-dien-1-yl)(2-(((2-(pyrrolidin-1-yl)ethyl)carbamoyl)oxy)ethyl)amino)octanoate] | 4.01E+06 | 2.16E+07 | 5.15E+06 | 1.72E+06 | 103% | 94% | 59% | 92% | 5.46E+08 | 6.98E+08 | ALT in Sera (IU/L) 2 hours After 0.5 MPK Injection [9]: 58.17 IU/L; ALT in Sera (IU/L) 24 hours After 0.5 MPK Injection [9]: 56.00 IU/L; AST in Sera (IU/L) 2 hours After 0.5 MPK Injection [10]: 195.53 IU/L; AST in Sera (IU/L) 24 hours After 0.5 MPK Injection [10]: 131.30 IU/L; Footpad Thickness (24 h−0 h, mm) (BALB/C mice [11]): 0.98 mm |
| 0.08 | 88.9 | 0.1768 | 55.55 | 0.417 mV | 0.5475 mV | 96% | 90% | 3830.40 pg/mL | 272.54 pg/mL | CCCCC/C=C\C/C=C\CCCCCCCCN(CCCCCCCC(=O)OC(CCCCCCCC)CCCCCCCC)CCOC(=O)NCCN(C)C [Lipid 129, heptadecan-9-yl 2-methyl-10-((9Z,12Z)-octadeca-9,12-dien-1-yl)-6-oxo-7-oxa-2,5,10-triazaoctadecan-18-oate] | 8.56E+06 | 7.03E+06 | 8.78E+06 | 1.11E+06 | 79% | 100% | 7% | 97% | 1.69E+09 | 1.42E+08 | ALT in Sera (IU/L) 2 hours After 0.5 MPK Injection [9]: 64.50 IU/L; ALT in Sera (IU/L) 24 hours After 0.5 MPK Injection [9]: 67.87 IU/L; AST in Sera (IU/L) 2 hours After 0.5 MPK Injection [10]: 188.97 IU/L; AST in Sera (IU/L) 24 hours After 0.5 MPK Injection [10]: 112.03 IU/L; Footpad Thickness (24 h−0 h, mm) (BALB/C mice [11]): 1.09 mm |
